Consider three compounds from publication PMC3992122 (Molecular cancer therapeutics, 2012).

Series [1] has as its system imatinib- and sunitinib-resistant GISTs. Conditions: phase II study; cited from earlier work.
The test system of series [2] is drug-resistant GIST. The conditions noted are these: third-line treatment, cited from earlier work.
The target of series [3] is GIST48 cells (KIT V560D + D820A) (Homo sapiens, UniProt P10721, D820A/V560D). The conditions noted are these: doses as low as 100 nmol/L.
The test system of series [4] is GIST after imatinib, sunitinib and nilotinib therapy. Conditions: fourth-line, 400 mg twice daily, cited from earlier work.
The test system of series [5] is GIST patients. Conditions: GIST patients treated with sorafenib; cited from earlier work.
Series [6] relates to imatinib- or imatinib/sunitinib-resistant GIST. Conditions: sorafenib 400 mg twice daily, cited from earlier work.
The test system of series [7] is imatinib-resistant GIST. Conditions: second-line setting; cited from earlier work.

Sequence of GIST48 cells (KIT V560D + D820A) (P10721 26-976 V560D/D820A): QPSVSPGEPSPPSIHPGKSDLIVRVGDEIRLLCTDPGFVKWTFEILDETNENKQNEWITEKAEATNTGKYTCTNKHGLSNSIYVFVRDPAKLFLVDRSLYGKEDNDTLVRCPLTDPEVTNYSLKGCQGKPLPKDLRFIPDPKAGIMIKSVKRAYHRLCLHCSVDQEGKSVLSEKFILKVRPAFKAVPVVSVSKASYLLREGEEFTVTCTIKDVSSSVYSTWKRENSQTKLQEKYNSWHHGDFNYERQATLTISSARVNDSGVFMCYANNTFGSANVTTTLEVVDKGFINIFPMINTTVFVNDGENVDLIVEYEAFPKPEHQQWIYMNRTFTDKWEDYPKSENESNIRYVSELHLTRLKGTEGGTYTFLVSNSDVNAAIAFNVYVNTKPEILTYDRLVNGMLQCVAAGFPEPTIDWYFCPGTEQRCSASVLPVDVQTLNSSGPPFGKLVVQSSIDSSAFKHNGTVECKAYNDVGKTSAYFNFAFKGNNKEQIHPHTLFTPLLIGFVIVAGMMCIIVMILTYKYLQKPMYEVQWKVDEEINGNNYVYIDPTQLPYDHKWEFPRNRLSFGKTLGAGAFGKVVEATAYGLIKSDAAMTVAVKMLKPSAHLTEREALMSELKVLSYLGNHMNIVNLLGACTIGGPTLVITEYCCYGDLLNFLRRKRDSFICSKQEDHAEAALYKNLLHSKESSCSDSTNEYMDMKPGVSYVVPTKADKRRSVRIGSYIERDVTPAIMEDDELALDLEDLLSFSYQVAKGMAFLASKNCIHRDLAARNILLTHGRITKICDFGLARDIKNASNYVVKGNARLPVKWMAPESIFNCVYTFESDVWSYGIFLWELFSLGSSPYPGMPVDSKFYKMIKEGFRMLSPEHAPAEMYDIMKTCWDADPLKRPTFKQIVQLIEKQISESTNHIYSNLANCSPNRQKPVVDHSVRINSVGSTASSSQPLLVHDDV

With `CNC(=O)c1cc(Oc2ccc(NC(=O)Nc3ccc(Cl)c(C(F)(F)F)c3)c(F)c2)ccn1` [Regorafenib], in series [1], the clinical benefit rate is 55% and the “median PFS” value was 10 months.
As to `CNC(=O)c1cc(Oc2ccc(NC(=O)Nc3ccc(Cl)c(C(F)(F)F)c3)cc2)ccn1` [Sorafenib], the “median OS” value in series [2] (median follow-up of 7.5 months) is “had not been reached”. In series [2], the “median PFS” value was 4.6 months and the “overall disease control rate” value was 65%. Further, the “inhibition of KIT phosphorylation” value in series [3] was found to be 85%. The “overall tumor control rate” value in series [4] (32 patients) is recorded as 63%. The “median PFS” value in series [4] is 4.6 months. For the same compound, in series [5], the “grade 3-4 anemia” value was 7%, the “grade 3-4 elevated liver enzymes or bilirubin” value is listed as 7%, the “grade 3-4 fatigue” value is 5% and the “grade 3-4 hand-foot skin reaction” value is 16%. Moreover, the “grade 3-4 hypertension” value in series [5] is 5%. Also, in series [6] (38 patients), the disease control rate is 68%. For the same compound, in series [6], the “hand-foot syndrome (grade 3-4 toxicity)” value is recorded as 45%, the “median OS” value is given as 11.6 months, the “patients requiring at least one dose reduction” value is listed as 63% and the “rate of grade 3-4 toxicity” value is “greater than 50%”.
For the compound `CCN(CC)CCNC(=O)c1c(C)[nH]c(/C=C2\C(=O)Nc3ccc(F)cc32)c1C` [Sunitinib], in series [7], the disease control rate is on record as 65% and the “median OS” value is on record as 17.2 months.
